Holding throughout (type): biochemical
Assay [1] has as its target T1, human recombinant Monoacylglycerol Lipase (Homo sapiens, UniProt Q99685).
T1 sequence (Q99685 1-303): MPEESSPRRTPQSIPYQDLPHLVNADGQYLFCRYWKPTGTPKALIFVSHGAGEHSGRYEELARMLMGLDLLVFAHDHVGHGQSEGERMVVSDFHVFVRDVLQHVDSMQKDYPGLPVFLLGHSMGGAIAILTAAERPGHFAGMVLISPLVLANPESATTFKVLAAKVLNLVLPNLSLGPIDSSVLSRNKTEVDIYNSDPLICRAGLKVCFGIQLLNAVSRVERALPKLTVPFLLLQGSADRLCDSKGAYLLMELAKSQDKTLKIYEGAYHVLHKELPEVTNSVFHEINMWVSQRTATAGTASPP
Put plainly: MAGL inactivation, enzyme progress curves, kinact/KI. The settings on record: from enzyme progress curves, T = 0 min protocol; geometric mean of 2-4 determinations unless otherwise indicated. The method, boiled down:
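Human recombinant MAGL ([…]) with compound, 7-HCA substrate (final 5 μM) added immediately (T=0 min), in pH 7.4 HEPES buffer with 0.1% Triton X-100 and 25% glycerin. Fluorescence (Ex/Em 340/465) was read every minute over 60 min, giving progress curves at decreasing compound concentrations (final 3 μM to 0.03 nM).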

Assay [2] has as its target T2, human recombinant FAAH (Homo sapiens, UniProt O00519).
T2 construct: purchased Cayman 10010183
T2 sequence (O00519 1-579): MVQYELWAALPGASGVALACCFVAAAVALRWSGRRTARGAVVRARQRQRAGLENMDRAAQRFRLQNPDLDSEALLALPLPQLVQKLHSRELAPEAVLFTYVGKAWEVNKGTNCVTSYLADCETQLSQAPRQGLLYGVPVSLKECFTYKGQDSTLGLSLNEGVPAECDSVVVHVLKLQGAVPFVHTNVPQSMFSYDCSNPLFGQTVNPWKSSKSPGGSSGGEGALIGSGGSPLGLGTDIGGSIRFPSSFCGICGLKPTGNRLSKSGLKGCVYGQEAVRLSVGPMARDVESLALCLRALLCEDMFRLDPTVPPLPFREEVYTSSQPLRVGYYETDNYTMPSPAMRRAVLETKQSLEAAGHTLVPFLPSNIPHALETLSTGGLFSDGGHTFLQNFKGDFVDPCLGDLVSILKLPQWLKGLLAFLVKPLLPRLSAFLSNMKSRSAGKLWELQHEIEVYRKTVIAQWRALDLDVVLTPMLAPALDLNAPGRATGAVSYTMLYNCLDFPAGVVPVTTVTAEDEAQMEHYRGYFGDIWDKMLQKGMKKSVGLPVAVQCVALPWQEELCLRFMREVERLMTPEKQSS
Kind of assay: FAAH inhibition enzymatic assay, fluorescent substrate Arachidonoyl-AMC, 30 minute incubation. Particulars: T = 30 min (30 minute incubation); geometric mean of 2-4 determinations unless otherwise indicated.

Assay [3] has as its target T1, human recombinant Monoacylglycerol Lipase. Put plainly: MAGL inhibition enzymatic assay, fluorogenic substrate 7-HCA, IC50 at T=0 min or after 30 minute incubation (T=30 min). The settings on record: geometric mean of 2-4 determinations unless otherwise indicated. The procedure:
An equal volume of 7-HCA in assay buffer with 10% DMSO was added either immediately (T=0 min) or after a 30 minute incubation (T=30 min) to initiate the reaction. […] After these dilutions, the final concentration of the test compound ranged from 3 μM to 0.03 nM. […] IC50 values were generated based on a four parameter fit model using ABASE software from IDBS.

Where [4] appears, read: T = 0 min (substrate added immediately), read-out: MAGL (T = 0 min) IC50.
The mark [5] stands for this setting: T = 30 min (30 minute incubation), read-out: MAGL (T = 30 min) IC50.

Consider twelve molecules from patent publication US10723711B2, “1,1,1-trifluoro-3-hydroxypropan-2-yl carbamate derivatives and 1,1,1-trifluoro-4-hydroxybutan-2-yl carbamate derivatives as MAGL inhibitors” (PFIZER INC., priority 2015, dated 2020).

Like-named read-outs stand apart in the source and are kept apart here. Some results are limits rather than exact numbers.

Turning to `CN(C(=O)CC1CCC1)[C@H]1COC2(CCN(C(=O)O[C@H](CO)C(F)(F)F)CC2)C1` [Example 143], the “MAGL kinact/KI” value in assay [1] is on record as 2585 1/s per M. Further, the IC50 in assay [2] is above 30000 nM; in assay [3] (setting [4]), 96 nM; in assay [3] (setting [5]) it was 10 nM.
In the same order, the values of `O=C(O[C@H](CO)C(F)(F)F)N1CCC(Oc2ccc(C(F)(F)F)cn2)CC1` [Example 53] are 6900 1/s per M, above 30000 nM, 53 nM and 6 nM.
Turning to `O=C(O[C@H](CO)C(F)(F)F)N1CCC2(CC1)CC(N1CCc3ccccc3S1(=O)=O)CO2` (mixture of isomers) [Example 131], the “MAGL kinact/KI” value in assay [1] was 4241 1/s per M. For the same molecule, the IC50 in assay [2] came out at 17400 nM; in assay [3] (setting [4]), 86 nM; in assay [3] (setting [5]) it was 11 nM.
In the same order, the values of `CC(C)N([C@H]1COC2(CCN(C(=O)O[C@H](CO)C(F)(F)F)CC2)C1)S(=O)(=O)c1ccccc1` [Example 107] are 127771 1/s per M, above 30000 nM, 10 nM and 1 nM.
As to `CN([C@H]1COC2(CCN(C(=O)O[C@H](CO)C(F)(F)F)CC2)C1)S(=O)(=O)CC(F)(F)F` [Example 137], the “MAGL kinact/KI” value in assay [1] is 7582 1/s per M. The IC50 in assay [2] is above 30000 nM; in assay [3] (setting [4]) it was 126 nM; in assay [3] (setting [5]) it was 11 nM.
In the same order, the values of `CC(C)Oc1ccc(S(=O)(=O)N2CCOC3(CCN(C(=O)O[C@H](CO)C(F)(F)F)CC3)C2)cc1` [Example 78] are 16865 1/s per M, 2580 nM, 6 nM and 1 nM.
In the same order, the values of `CC(c1ccc(F)cc1)N1CCOC2(CCN(C(=O)O[C@H](CO)C(F)(F)F)CC2)C1` (single isomer, unassigned) [Example 45] are 3134 1/s per M, above 30000 nM, 191 nM and 18 nM.
In the same order, the values of `Cc1ccc(CC2COC3(CCN(C(=O)O[C@H](CO)C(F)(F)F)CC3)C2)nc1` (mixture of isomers) [Example 102, (2R)-1,1,1-Trifluoro-3-hydroxypropan-2-yl 3-[(5-methylpyridin-2-yl)methyl]-1-oxa-8-azaspiro[4.5]decane-8-carboxylate] are 1336 1/s per M, 18300 nM, 215 nM and 26 nM.
As to `CN(C(=O)c1cccc(F)c1)[C@H]1COC2(CCN(C(=O)O[C@H](CO)C(F)(F)F)CC2)C1` [Example 141], the “MAGL kinact/KI” value in assay [1] was 3519 1/s per M. Moreover, the IC50 in assay [2] is above 30000 nM; in assay [3] (setting [4]) it was 77 nM; in assay [3] (setting [5]) it was 7 nM.
For `CN(C(=O)CC1CC1)[C@H]1COC2(CCN(C(=O)O[C@H](CO)C(F)(F)F)CC2)C1` [Example 145], the “MAGL kinact/KI” value in assay [1] was 1476 1/s per M. In addition, the concentration for half-maximal inhibition (IC50) was above 30000 nM in assay [2], 198 nM in assay [3] (setting [4]) and 19 nM in assay [3] (setting [5]).
As for `CN(C1COC2(CCN(C(=O)O[C@H](CO)C(F)(F)F)CC2)C1)S(=O)(=O)c1ccc(F)cc1` (single isomer, unassigned) [Example 111], the “MAGL kinact/KI” value in assay [1] is given as 33483 1/s per M. The IC50 in assay [2] is above 30000 nM; in assay [3] (setting [4]) it was 28 nM; in assay [3] (setting [5]), 2 nM.
Consider `O=C(O[C@H](CO)C(F)(F)F)N1CCC2(CCCN(S(=O)(=O)c3ccc(F)cc3)C2)CC1` [Example 12, (2R)-1,1,1-Trifluoro-3-hydroxypropan-2-yl 2-[(4-fluorophenyl)sulfonyl]-2,9-diazaspiro[5.5]undecane-9-carboxylate], for which the “MAGL kinact/KI” value in assay [1] is given as 1801 1/s per M. Besides, the IC50 in assay [2] was above 30000 nM; in assay [3] (setting [4]), 188 nM; in assay [3] (setting [5]) it was 17 nM.
